According to patent publication US9073858B2, “Methods of targeted drug development” (priority 2010, dated 2015):
Where two headings read alike, the source gives them in different places. One block for each compound: values may come before it.

Experiments:
[1] = target: T1, EGFR (Homo sapiens, UniProt P00533); assay: EGFR in-cell Western (ICW) screening protocol; assay type: cell-based; design: unit not given here; conditions: for ICW Screen: initial screen
T1 construct: endogenous in cells; host or cells: A431 cells (ATCC CRL-1555)
Outline: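 Serum-starved cells treated with compound 4 h at 37 °C, then stimulated with EGF (20 or 0 ng/ml solution added) in its continued presence. In-cell Western on fixed cells: phospho-EGFR (800 channel) normalised to total EGFR (700 channel), % inhibition calculated against EGF-stimulated and unstimulated no-compound wells.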

[2] = tested on: epithelial carcinoma A431 cell line; assay: MTT Cell Proliferation Assay, A431 cell line; assay type: cell-based; conditions: for MTT (10 Point follow-up) ratio / MTT-72 h A431/MDBK (ratio): value in brackets; for MTT (10 Point follow-up) ratio: numerically MDBK over A431; for MTT-72 h A431/MDBK (ratio): numerically MDBK value over A431 value
Outline: (§1)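 Cells plated overnight, then exposed 3 days at 37 °C, 5% CO2 to compound in growth medium with 0.5% FBS and 0.5% DMSO final (0.5% DMSO as control).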

[3] = tested on: MDBK line; assay: MTT Cell Proliferation Assay, MDBK line; assay type: cell-based, bovine
Outline: as §1

[4] = Homo sapiens, A-431, 10 point follow-up, first value of pair, read-out: MTT (10 Point follow-up) A431
[5] = Bos taurus, MDBK, 10 point follow-up, second value of pair, read-out: MTT (10 Point follow-up) MDBK
[6] = 10 point follow-up, first value of pair, read-out: MTT (10 Point follow-up) A431
[7] = 72 h, first value of A431/MDBK pair, read-out: MTT-72 h A431
[8] = 10 point follow-up, second value of pair, read-out: MTT (10 Point follow-up) MDBK
[9] = Homo sapiens, A-431, 72 h, 72 h, first value of A431/MDBK pair, read-out: MTT-72 h A431
[10] = Bos taurus, MDBK, 72 h, second value of A431/MDBK pair, read-out: MTT-72 h MDBK

T1 sequence (P00533 25-1210): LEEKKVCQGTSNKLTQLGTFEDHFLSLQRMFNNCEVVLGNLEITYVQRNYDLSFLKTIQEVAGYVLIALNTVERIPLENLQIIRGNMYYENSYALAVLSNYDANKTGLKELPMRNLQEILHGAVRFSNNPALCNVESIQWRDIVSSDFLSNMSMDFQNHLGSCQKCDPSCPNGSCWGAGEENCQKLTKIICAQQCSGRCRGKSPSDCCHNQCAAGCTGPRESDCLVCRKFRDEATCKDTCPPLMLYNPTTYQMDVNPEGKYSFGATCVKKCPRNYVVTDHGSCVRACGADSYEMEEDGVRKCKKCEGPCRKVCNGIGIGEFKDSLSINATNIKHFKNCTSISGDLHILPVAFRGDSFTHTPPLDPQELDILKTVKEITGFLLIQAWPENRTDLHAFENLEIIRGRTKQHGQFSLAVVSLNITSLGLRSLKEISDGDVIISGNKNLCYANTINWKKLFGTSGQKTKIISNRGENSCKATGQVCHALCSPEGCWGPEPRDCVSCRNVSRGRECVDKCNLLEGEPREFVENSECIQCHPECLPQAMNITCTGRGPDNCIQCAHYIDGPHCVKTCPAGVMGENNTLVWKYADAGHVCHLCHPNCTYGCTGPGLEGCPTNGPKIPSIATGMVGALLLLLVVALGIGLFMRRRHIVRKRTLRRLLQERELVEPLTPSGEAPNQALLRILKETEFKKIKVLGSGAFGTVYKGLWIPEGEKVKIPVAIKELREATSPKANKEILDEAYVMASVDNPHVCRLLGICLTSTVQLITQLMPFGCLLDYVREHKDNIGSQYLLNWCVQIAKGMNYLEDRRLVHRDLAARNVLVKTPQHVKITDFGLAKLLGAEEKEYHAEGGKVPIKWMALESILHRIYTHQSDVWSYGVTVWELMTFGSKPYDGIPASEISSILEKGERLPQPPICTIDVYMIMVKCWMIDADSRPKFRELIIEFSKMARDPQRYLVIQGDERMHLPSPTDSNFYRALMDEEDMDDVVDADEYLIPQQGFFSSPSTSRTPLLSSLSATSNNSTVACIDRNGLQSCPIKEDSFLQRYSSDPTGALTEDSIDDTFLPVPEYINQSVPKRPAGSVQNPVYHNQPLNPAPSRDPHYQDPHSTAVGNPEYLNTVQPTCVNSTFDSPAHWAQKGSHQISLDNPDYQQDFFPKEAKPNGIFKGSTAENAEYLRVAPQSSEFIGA

SMILES: Oc1c(C(Nc2ccccn2)c2ccccc2Cl)ccc2cccnc12 (stereo not drawn) [compound 10482]
- ICW Screen [1]: 16.45
- MTT (10 Point follow-up) ratio ([2]; 10 point follow-up): 1.28
- IC50 [2, 4]: 0.356 µM
- IC50 [3, 5]: 0.455 µM

SMILES: Cc1cccc(NC(c2ccc3c(c2)OCO3)c2ccc3cccnc3c2O)n1 (stereo not drawn) [compound 10487]
- ICW Screen [1]: 33.14
- MTT (10 Point follow-up) ratio ([2]; 10 point follow-up): 0.72
- IC50 [2, 7]: 5.51 µM
- MTT-72 h A431/MDBK (ratio) ([2]; 72 h): 0.96
- IC50 [2, 4]: 1.33 µM
- IC50 [3, 5]: 0.963 µM
- IC50 [3, 10]: 5.28 µM

SMILES: Oc1c(C(c2ccccn2)N2CCN(Cc3ccccc3)CC2)ccc2cccnc12 (stereo not drawn) [compound 10534]
- ICW Screen [1]: 28.31
- MTT-72 h A431/MDBK (ratio) ([2]; 72 h): 0.85
- IC50 [2, 9]: 10.8 µM
- IC50 [3, 10]: 9.18 µM

SMILES: CCN1CCN(C(c2ccc(C(F)(F)F)cc2)c2ccc3cccnc3c2O)CC1 (stereo not drawn) [compound 10535]
- ICW Screen [1]: 44.02
- ICW Re-Test [1]: 52.63
- MTT (10 Point follow-up) ratio ([2]; 10 point follow-up): 1.43
- MTT-72 h A431/MDBK (ratio) ([2]; 72 h): 1.45
- IC50 [2, 4]: 2.04 µM
- IC50 [2, 9]: 2.72 µM
- IC50 [3, 5]: 2.91 µM
- IC50 [3, 10]: 3.95 µM

SMILES: OCCN1CCN(C(c2cccs2)c2ccc3cccnc3c2O)CC1 (stereo not drawn) [compound 10546]
- ICW Screen [1]: 25.23
- MTT-72 h A431/MDBK (ratio) ([2]; 72 h): 0.84
- IC50 [2, 9]: 7.03 µM
- IC50 [3, 10]: 5.92 µM

SMILES: CCN1CCN(C(c2cccnc2)c2cc(Cl)c3cccnc3c2O)CC1 (stereo not drawn) [compound 10547]
- ICW Screen [1]: 26.4
- MTT-72 h A431/MDBK (ratio) ([2]; 72 h): 0.52
- IC50 [2, 9]: 11.5 µM
- IC50 [3, 10]: 5.96 µM

SMILES: CN1CCN(C(c2ccccn2)c2ccc3cccnc3c2O)CC1 (stereo not drawn) [compound 10548]
- ICW Screen [1]: 31.03
- MTT-72 h A431/MDBK (ratio) ([2]; 72 h): 0.89
- IC50 [2, 9]: 9.05 µM
- IC50 [3, 10]: 8.07 µM

Further lines, with some results ahead:

- ICW Screen [1]: 25.82
- IC50 [2, 4]: 0.798 µM
SMILES: Cc1ccnc(NC(c2ccc(Cl)cc2)c2ccc3cccnc3c2O)c1 (stereo not drawn) [compound 10481]
- MTT (10 Point follow-up) ratio ([2]; 10 point follow-up): 1.54
- IC50 [3, 5]: 1.23 µM

- ICW Screen [1]: 17.58
- IC50 [2, 6]: 0.253 µM
- IC50 [2, 7]: 0.26 µM
SMILES: Cc1cccc(NC(c2ccc(C(F)(F)F)cc2)c2ccc3cccnc3c2O)n1 (stereo not drawn) [compound 10483]
- IC50 [3, 8]: 0.481 µM
- IC50 ([3]; 72 h, second value of A431/MDBK pair, read-out: MTT-72 h MDBK): 0.49 µM

- ICW Screen [1]: 26.3
- IC50 [2, 6]: 0.305 µM
- IC50 [2, 9]: 0.32 µM
SMILES: Oc1c(C(Nc2ccccn2)c2ccc(Cl)cc2Cl)ccc2cccnc12 (stereo not drawn) [compound 10484]
- MTT (10 Point follow-up) ratio ([2]; 10 point follow-up): 2.12
- MTT-72 h A431/MDBK (ratio) ([2]; 72 h): 2.70
- IC50 [3, 8]: 0.679 µM
- IC50 [3, 10]: 0.85 µM

- ICW Screen [1]: 25.02
- IC50 [2, 4]: 0.275 µM
- IC50 [2, 9]: 0.29 µM
SMILES: Cc1ccnc(NC(c2ccc(C(F)(F)F)cc2)c2ccc3cccnc3c2O)c1 (stereo not drawn) [compound 10486]
- MTT (10 Point follow-up) ratio ([2]; 10 point follow-up): 3.07
- MTT-72 h A431/MDBK (ratio) ([2]; 72 h): 2.76
- IC50 [3, 5]: 0.844 µM
- IC50 [3, 10]: 0.8 µM

- ICW Screen [1]: 15.95
- IC50 [2, 4]: 1.85 µM
SMILES: Cc1ccnc(NC(c2ccccc2F)c2ccc3cccnc3c2O)c1 (stereo not drawn) [compound 10488]
- MTT (10 Point follow-up) ratio ([2]; 10 point follow-up): 1.20
- IC50 [3, 5]: 2.22 µM

- ICW Screen [1]: 31.55
- IC50 [2, 4]: 1.25 µM
- IC50 [2, 9]: 1.28 µM
SMILES: Oc1cccnc1NC(c1ccc(F)cc1)c1ccc2cccnc2c1O (stereo not drawn) [compound 10509]
- MTT (10 Point follow-up) ratio ([2]; 10 point follow-up): 1.56
- MTT-72 h A431/MDBK (ratio) ([2]; 72 h): 1.60
- IC50 [3, 5]: 1.95 µM
- IC50 [3, 10]: 2.05 µM

- ICW Screen [1]: 12.86
- IC50 [2, 4]: 0.517 µM
SMILES: Oc1cccnc1NC(c1ccccc1F)c1ccc2cccnc2c1O (stereo not drawn) [compound 10512]
- MTT (10 Point follow-up) ratio ([2]; 10 point follow-up): 1.92
- IC50 [3, 5]: 0.991 µM

- ICW Screen [1]: 39.93
- ICW Re-Test [1]: 51.72
- IC50 [2, 9]: 6.52 µM
SMILES: COc1ccc(C(Nc2ccccn2)c2ccc3cccnc3c2O)cc1OC (stereo not drawn) [compound 10518]
- MTT-72 h A431/MDBK (ratio) ([2]; 72 h): 0.83
- IC50 [3, 10]: 5.43 µM

- ICW Screen [1]: 26.6
- IC50 [2, 4]: 1.65 µM
SMILES: Cc1ccnc(NC(c2ccc(F)cc2)c2ccc3cccnc3c2O)c1 (stereo not drawn) [compound 10522]
- MTT (10 Point follow-up) ratio ([2]; 10 point follow-up): 1.14
- IC50 [3, 5]: 1.89 µM

- ICW Screen [1]: 38.96
- ICW Re-Test [1]: 30.44
- IC50 [2, 9]: 5.33 µM
SMILES: COc1ccc(C(Nc2ccccn2)c2ccc3cccnc3c2O)cc1 (stereo not drawn) [compound 10524]
- MTT-72 h A431/MDBK (ratio) ([2]; 72 h): 0.95
- IC50 [3, 10]: 5.09 µM
